Target: BRD4 (Homo sapiens, UniProt O60885)
Experiment: CURE-PRO-mediated BRD4 degradation with VHL ligands, Western blot, MCF7 cells
Type: cell-based
Design: endogenous in cells
Conditions: MCF7, 24 h, 1:1 with 8305, 100 nM-10 μM
Description: All cell lines were purchased from ATCC or DSMZ and grown at 37° C. with 5% CO2. Human HeLa cells were cultured in complete growth medium (Dulbecco's modified Eagle's medium (DMEM) supplemented with 10% FBS); MCF7 cells were cultured in complete growth medium (Dulbecco's modified Eagle's medium (DMEM) supplemented with 10% FBS and 0.01 mg/ml human recombinant insulin (Sigma Aldrich); Namalwa and MOLM-13 cells were cultured in complete growth medium (RPMI 1640 medium supplemented with 10% FBS); MV-4-11 were cultured in complete growth medium (Iscove's Modified Dulbecco's medium, supplemented with 10% FBS); HCT116 cells were cultured in complete growth medium (McCoy's 5a Medium supplemented with 10% FBS). For cellular degradation of BRD4 studies, cells were seeded in a 12-well plate at 70-80% confluency, allowed to attach overnight, and incubated with the indicated compounds for the indicated time. When indicated, a 15-minute pretreatment with 10 μM pomalidomide, 10 μM VHL298, 10 μM Nutlin3a, 1 μM MG-132 or 1 μM Carfilzomib was performed before the addition of CURE-PROs. For washout studies, after CURE-PRO treatment, media was aspirated and incubated with complete medium for the indicated time before lysis.
HeLa, MCF7, or HCT116 cells (2.5-3×10^6) were treated for 24 hours with the indicated compounds solubilized in DMSO. The cells were washed in ice-cold PBS and were then lysed in RIPA lysis buffer (150 mM NaCl, 5 mM EDTA, 1% NP-40, 0.5% sodium deoxycholate, 0.1% SDS, 50 mM Tris, pH 8.0.) with Roche protease inhibitor complete cocktail and phosphatase inhibitors (10 mM sodium fluoride, 10 mM sodium pyrophosphate, 1 mM sodium orthovanadate and 20 mM β-glycerophosphate). The total protein concentrations were determined by Bradford Protein Assay and 10-20 μg of protein was loaded onto 4-15% Tris-Glycine gradient gels (Biorad). After standard gel electrophoresis, the separated proteins were transferred to PVDF membrane by wet transfer. The immunoblots were then blocked for 1 hour in 5% skim milk in TBST or 5% BSA in TBST, according to manufacturer's instructions, before an overnight incubation at 4° C. with indicated antibodies and membranes. Membranes were then incubated with the appropriate horseradish peroxidase-conjugated secondary antibodies (1:5,000 dilution) for 1 h at room temperature and the bands were visualized using the Clarity Max Western ECL Substrate (Biorad) and the ChemiDoc Imaging System (Biorad). Signal was detected with ECL Western Blotting Substrate (Pierce) and X-ray film processed with a Konica SRX-101 X-ray film processor or captured by Bio-Rad's Chemidoc Imaging system.
MCF7 cells (3×10^6) were treated for 24 h with the compounds solubilized in DMSO. Compounds were added at 100 nM-10 μM. […]

Structure (SMILES): CCNC(=O)C[C@@H]1N=C(c2ccc(Cl)cc2)c2cc(OCCCCC(=O)Nc3cccc(B(O)O)c3)ccc2-n2c(C)nnc21 [BRD-E20, (3-(5-(((4S)-6-(4-chlorophenyl)-4-(2-(ethylamino)-2-oxoethyl)-1-methyl-4H-benzo[f][1,2,4]triazolo[4,3-a][1,4]diazepin-8-yl)oxy)pentanamido)phenyl)boronic acid]
- BRD4 degradation, with VHL ligand 8305 (Western blot): there is degradation of BRD4

Source: US20230277553A1, “THERAPEUTIC COMPOSITION OF CURE-PRO COMPOUNDS FOR TARGETED DEGRADATION OF BET DOMAIN PROTEINS, AND METHODS OF MAKING AND USAGE” (CORNELL UNIVERSITY, priority 2020, published 2023)
